In patent US10273290B2, “Hydrocarbon double-stapled stabilized HIV-1 GP41 heptad repeat domain peptides” (DANA-FARBER CANCER INSTITUTE, INC., priority 2009, dated 2019):
Entries after “also recorded” stand apart in the source; their conditions may differ. Like-named read-outs stand apart in the source and are kept apart here. Bridge positions count the residues as written; N and C are the ends. Square brackets hold non-standard residues; d marks the D form. Ends that are not written are not given here. Peptide text beside a SMILES is read from it. S5 = C=CCCC[C@](C)(N)C(=O)O; Nle = CCCC[C@H](N)C(=O)O

Tests used:
[1] = system: pepsin; experiment: Protease resistance assay, pepsin at pH 2; details: for Half-life (minutes), pepsin: pepsin at 0.5 ng/μL, peptide 25 μM, acidic conditions
Description: The DAD signal was set to 280 nm with an 8 nm bandwidth and MSD set to scan mode with one channel at (M+2H)/2, +1 mass units and the other at (M+3H)/3, +1 mass units. […] Reaction samples were composed of 5 μL peptide in DMSO (1 mM stock) and 195 μL of buffer consisting of 50 mM phosphate buffer pH 7.4 containing 2 mM CaCl2. Upon injection of the 0 hr time point sample, 2 μL of 50 ng/μL chymotrypsin (Sigma) was added and the amount of intact peptide quantitated by serial injection over time. An internal control of acetylated tryptophan carboxamide at a concentration of 100 μM was used to normalize each MSD data point. A plot of MSD area versus time yielded an exponential decay curve and half-lives were determined by nonlinear regression analysis using Prism software (GraphPad). The assay was also performed using trypsin and pepsin in their appropriate buffer conditions.

[2] = system: HIV-1 strains HXBc2, ADA, and HXBc2P 3.2; experiment: Luciferase-based HIV-1 infectivity assay, three strains; format: cell-based
Description: Also the direct inhibitory activity of modified polypeptides and the antibodies targeted thereto can be quantified based upon their capacity to directly block HIV infection of CD4-positive and CCR5-expressing canine thymus cells. […] The identical experiment is performed with the amphotropic murine leukemia virus (AMLV), to monitor for any nonspecific effects of the modified polypeptides or antibodies.
(§1) HIV-1 infectivity assays were performed using known methods (Madani et al., 2007 Inhibition of human immunodeficiency virus envelope glycoprotein-mediated single cell lysis by low-molecular-weight antagonists of viral entry. J Virol, 81: 532-538; and Si et al., 2001 Envelope glycoprotein determinants of neutralization resistance in a simian-human immunodeficiency virus (SHIV-HXBc2P 3.2) derived by passage in monkeys. J Virol, 75:4208-4218; both incorporated herein by reference). […] Virus-containing supernatants were harvested 24-30 hr after transfection, filtered, aliquoted, and stored at −80° C. Target cells were seeded at a density of 6×10^3 cells/well in 96-well plates 24 hours prior to infection. Cf2Th-CD4-CCR5 cells were used for infections by viruses with the ADA, YU2, and A-MLV envelope glycoproteins, and Cf2Th-CD4-CXCR4 cells used for HXBc2, HXBc2P 3.2, and A-MLV. On the day of infection, the structured peptides (0-3 μM) were added to recombinant viruses (10,000 RT units) to a final volume of 50 μL and incubated at 37° C. for 30 min. Media was then removed and the target cells incubated with virus-peptide mixture for 48 hours at 37° C. The media was again removed and the cells lysed with 30 μL of passive lysis buffer (Promega) and three freeze-thaw cycles.
Recombinant HIV-1 bearing the envelope glycoproteins from three distinct HIV-1 strains, HXBc2, ADA, and HXBc2P 3.2, and a negative control virus bearing the amphotropic murine leukemia virus (A-MLV) envelope glycoproteins, were evaluated.

[3] = biological target: T1, chymotrypsin (Bos taurus, UniProt P00766); experiment: Protease resistance assay, chymotrypsin (LC/MS); format: in vitro ADME; details: pH 7.4, 0.5 chymotrypsin, peptide 25 μM
T1 construct: purchased Sigma

[4] = system: 4E10 antibody; experiment: Competitive 4E10 antibody binding by ELISA; parameters: species or system human; details: competition with wild-type MPER peptide probe
Description: Half maximal inhibitory concentrations (IC50s) were determined by competitive enzyme-linked assay (ELISA) using a constant concentration of biotinylated peptide and 4E10-IgG with a variable concentration of gp41 peptides. Microwells were coated overnight at 4° C. with 50 μl of PBS containing neutravidin (4 μg/ml). Wells were washed twice with PBS containing 0.05% Tween 20, and blocked with 4% non-fat dry milk (NFDM) in PBS for 45 min at 37° C. Meanwhile, a mixture of a biotinylated 4E10-peptide epitope, biotin-PEG2-[…], (20 nM), IgG 4E10 (0.2 nM), and the competing peptide analogue (threefold dilution series starting at 10 μM) in 0.4% NFDM, 0.02% Tween and PBS was incubated in a separate 96-well plate at 37° C. for 2 h. After washing the blocked plate, the mixture of 4E10, biotinylated peptide and competing structured HIV-1 gp41 peptide was added to the wells. After 20 min at room temperature, the wells were washed five times, and a 1:500 dilution of Goat Anti-Human IgG F(ab′)2, Peroxidase Conjugate was added. […] After 20 min, wells containing TMB solution were stopped by adding 50 μl of H2SO4 (2 M), and the absorbance at 450 nm was read on a microplate reader (Molecular Devices). The concentration of competitor peptide corresponding to a half-maximal signal (IC50) was determined by interpolation of the resulting binding curve using GraphPad Prism. […]

[5] = Chymotrypsin, pH 7
Text: (§2) Title: Chymotrypsin, pH 7
First reader's note: The table also serves as the legend of the plot of fraction intact over time; the line and marker symbols are left out.

[6] = Chymotrypsin, pH 7; remark: listed apart in the source
Text: Table printed on a drawing sheet, FIG. 17D
as §2
First reader's note: The table also serves as the legend of the plot below it (fraction intact over time); the plot symbols before the compound names are left out.

[7] = Circular dichroism, α-helical content; format: physicochemical
Description: The α-helicity of stapled modified polypeptides was compared to their unmodified counterparts by circular dichroism. CD spectra were obtained on an Aviv spectropolarimeter at 20° C. using the following standard measurement parameters: wavelength, 190-260 nm; step resolution, 0.5 nm; speed, 20 nm/sec; accumulations, 10; response, 1 sec; bandwidth, 1 nm; path length, 0.1 cm. The α-helical content of each peptide was calculated by dividing the mean residue ellipticity [θ]222obs, by the reported [θ]222obs for a model helical peptide (Forood, B., E. J. Feliciano, and K. P. Nambiar, PNAS, 1993. 90(3): p. 838-842; J. Martin Scholtz, Biopolymers, 1991. 31(13): p. 1463-1470; Lawless, M. K., et al., Biochemistry, 1996. 35(42): p. 13697-13708) or using, for example, the Aviv machine using CDNN software developed by Brohm in order to deduce five different secondary structure fractions (helix, parallel and antiparallel beta-sheet, beta-turn and random coil). Protein Engineering, 1992. 5(3); p. 191-195
In order to evaluate secondary structure improvements of hydrocarbon-stapled peptides, we record and analyze circular dichroism (CD) spectra on an Aviv Biomedical spectrometer (model 410), as described above. […] The CD spectra are initially plotted as wavelength versus millidegree. […] After conversion to mean residue ellipticity, percent α-helicity can be calculated using the equation, % helicity=100×[θ]222/^max[θ]222, where ^max[θ]222=−40,000×[1−(2.5/number of amino acid residues)]. We also employ the curve-fitting CDDN software that is bundled with our spectrometer to calculate the relative fractions of secondary structure including α-helix, parallel and antiparallel β-sheet, β-turn and random coil.

[8] = system: HIV-1 HXBc2 virus bearing HR1 double mutations V38A/N42T and V38E/N42S; experiment: HIV-1 infectivity assay, enfuvirtide-resistant HR1 double mutants; format: cell-based
Description: as §1

CCCC[C@H](NC(C)=O)C(=O)N[C@H](C(=O)N[C@@H](Cc1c[nH]c2ccccc12)C(=O)N[C@@H](CCCC)C(=O)N[C@@H](CCC(=O)O)C(=O)N[C@@H](Cc1c[nH]c2ccccc12)C(=O)N[C@@]1(C)CCCC=CCCC[C@@](C)(C(=O)N[C@@H](CC(N)=O)C(=O)N[C@@H](Cc2ccc(O)cc2)C(=O)N[C@H](C(=O)N[C@@H](CO)C(=O)N[C@@H](CC(C)C)C(=O)N[C@H](C(=O)N[C@@H](Cc2c[nH]cn2)C(=O)N[C@@H](CO)C(=O)N[C@@H](CC(C)C)C(=O)N[C@H](C(=O)N[C@@H](CCC(=O)O)C(=O)N[C@@H](CCC(=O)O)C(=O)N[C@@H](CO)C(=O)N[C@@H](CCC(N)=O)C(=O)N[C@@H](CC(N)=O)C(=O)N[C@@H](CCC(N)=O)C(=O)N[C@@]2(C)CCCC=CCCC[C@@](C)(C(=O)N[C@@H](CCC(N)=O)C(=O)N[C@@H](CCC(=O)O)C(=O)N[C@@H](CC(C)C)C(=O)N[C@@H](CC(C)C)C(=O)N[C@@H](CCC(=O)O)C(N)=O)NC(=O)[C@H](CC(N)=O)NC(=O)[C@H](CCCCN)NC(=O)[C@H](CCC(=O)O)NC2=O)[C@@H](C)CC)[C@@H](C)CC)[C@@H](C)O)NC(=O)[C@H]([C@@H](C)CC)NC(=O)[C@H](CCC(=O)O)NC(=O)[C@H](CCCNC(=N)N)NC1=O)[C@@H](C)O [SAH-gp41(626-662)(B, F)] (Ac-[Nle]TW[Nle]EW[S5]REI[S5]NYTSLIHSLIEESQNQ[S5]EKN[S5]QELLE-NH2; staple 7-11, 28-32)
half-life at 25 μM ([1]; pepsin (isolated protease) in buffer, pH 2): 930 min
anti-HIV-1 (anti-viral) activity, in words [2]: relatively impaired anti-viral activity
Half-Life [3]: 1280 min

SEQ ID NO:135: i, i+4 singly stapled SAH-MPER peptide stapled in a similar position (ELDKWASLWNWFNITN[S5]LWY[S5]K-NH2; staple 17-21)
competition for 4E10 antibody binding, in words [4]: superior to the wild-type MPER peptide

SEQ ID NO:136: i, i+3 singly stapled SAH-MPER peptide (ELDKWASLWNWFNITN[S5]LW[S5]IK-NH2; staple 17-20)
competition for 4E10 antibody binding, in words [4]: compete more effectively for binding than an i, i+4 stapled peptide stapled in a similar position; also recorded: superior to the wild-type MPER peptide

Sifuvirtide
Half-Life [5]: 2 min

enfuvirtide [listing 1 of 2 here]
Half-Life [6]: 1004 min
Half-life (minutes), pepsin [1]: 3320 min
anti-HIV-1 (anti-viral) activity, in words [2]: relatively impaired anti-viral activity

enfuvirtide [listing 2 of 2 here]
% helicity at pH 2 ([7]; pH 2): 49%
% helicity at pH 7 ([7]; pH 7): 19%
calculated α-helical content ([7]; physiologic pH): ~25%
Half-life (minutes), pepsin [1]: 4 min
functional activity against HR1 double-mutant HIV-1, in words [8]: no functional activity
